# Earlier results as cited in PubChem BioAssay AID1259409 (Chemical Carcinogenesis Research Information System (CCRIS), 2018).
# System: rodent chemically induced tumor inhibition, incidence and multiplicity
# Assay: CCRIS tumor inhibitor studies
# Conditions: Promoter: NONE USED
smiles,measurement,setting,value
C=C1CC[C@H](O)C/C1=C/C=C1\CCC[C@]2(C)[C@@H]([C@H](C)CCCC(C)C)CC[C@@H]12,"tumour outcome (control, treated, inhibition, significance)","Carcinogen: N-BUTYL-N-(4-HYDROXYBUTYL)NITROSAMINE, 3817-11-6, Dose [Inhibitor]: 0.002% DIET DAILY FOR 7 WK FOLLOWED BY 1 WK OF NO TREATMENT THEN 5 WK OF 0.001% DIET DAILY AND NO FURTHER TREATMENT THRO, Route [Inhibitor]: ORAL, Species: RAT, Strain/Sex: F344/MALE, Target Tissue: Type of Lesion: URINARY BLADDER: PAPILLOMA, Dose [Carcinogen]: 0.01% IN DRINKING WATER FOR 4 WK","33%, 41%, -24%, not significant"
same,"tumour outcome (control, treated, inhibition, significance)","Carcinogen: N-METHYL-N-NITROSOUREA, 684-93-5, Dose [Inhibitor]: 0, 3.3 UG/KG OF DIET FOR 147 D (STUDY DURATION: 150 D), Route [Inhibitor]: ORAL, Species: RAT, Strain/Sex: SPRAGUE-DAWLEY/FEMALE, Target Tissue: Type of Lesion: MAMMARY GLAND: ADENOCARCINOMA, Dose [Carcinogen]: 50 MG/KG BW ONCE 3 D BEFORE INITIAL INHIBITOR DOSE","25/25 (100%), 25/25 (100%), 0%, not significant"
same,"tumour outcome (control, treated, inhibition, significance)","Carcinogen: N-METHYL-N-NITROSOUREA, 684-93-5, Dose [Inhibitor]: 0, 10 UG/KG OF DIET FOR 147 D (STUDY DURATION: 150 D), Route [Inhibitor]: ORAL, Species: RAT, Strain/Sex: SPRAGUE-DAWLEY/FEMALE, Target Tissue: Type of Lesion: MAMMARY GLAND: ADENOCARCINOMA, Dose [Carcinogen]: 50 MG/KG BW ONCE 3 D BEFORE INITIAL INHIBITOR DOSE","25/25 (100%), 25/25 (100%), 0%, not significant"
ClC(Cl)Cl,"tumour outcome (control, treated, inhibition, significance)","Carcinogen: 1,2-DIMETHYLHYDRAZINE DIHYDROCHLORIDE, 306-37-6, Dose [Inhibitor]: 900 MG/L IN DRINKING WATER BEGINNING 7 D POST CARCINOGEN DOSE AND CONTINUING FOR 39 WK (STUDY DURATION: 39 WK), Route [Inhibitor]: ORAL, Species: RAT, Strain/Sex: F344/MALE, Target Tissue: Type of Lesion: GASTROINTESTINAL TRACT: TUMOR, Dose [Carcinogen]: 200 MG/KG ONCE","14/39 (36%), 5/39 (13%), 64%, not calculated"
same,"tumour outcome (control, treated, inhibition, significance)","Carcinogen: 1,2-DIMETHYLHYDRAZINE DIHYDROCHLORIDE, 306-37-6, Dose [Inhibitor]: 1800 MG/L IN DRINKING WATER BEGINNING 7 D POST CARCINOGEN DOSE AND CONTINUING FOR 39 WK (STUDY DURATION: 39 WK), Route [Inhibitor]: ORAL, Species: RAT, Strain/Sex: F344/MALE, Target Tissue: Type of Lesion: GASTROINTESTINAL TRACT: TUMOR, Dose [Carcinogen]: 200 MG/KG ONCE","14/39 (36%), 5/40 (13%), 64%, not calculated"
same,"tumour outcome (control, treated, inhibition, significance)","Carcinogen: ETHYLNITROSOUREA, 759-73-9, Dose [Inhibitor]: 0, 1800 PPM IN DRINKING WATER BEGINNING AT 5 WK OF AGE AND CONTINUING TO 51 WK OF AGE (STUDY DURATION: 52 WK), Route [Inhibitor]: ORAL, Species: MOUSE, Strain/Sex: CD-1/FEMALE, Target Tissue: Type of Lesion: LUNG: ADENOMA, Dose [Carcinogen]: 5 MG/KG ONCE AT 15 D OF AGE","10/36 (28%), 7/38 (18%), 36%, not calculated"
same,"tumour outcome (control, treated, inhibition, significance)","Carcinogen: ETHYLNITROSOUREA, 759-73-9, Dose [Inhibitor]: 0, 1800 PPM IN DRINKING WATER BEGINNING AT 5 WK OF AGE AND CONTINUING TO 51 WK OF AGE (STUDY DURATION: 52 WK), Route [Inhibitor]: ORAL, Species: MOUSE, Strain/Sex: CD-1/FEMALE, Target Tissue: Type of Lesion: LUNG: ADENOMA, Dose [Carcinogen]: 20 MG/KG ONCE AT 15 D OF AGE","25/39 (64%), 23/45 (51%), 20%, not calculated"
same,"tumour outcome (control, treated, inhibition, significance)","Carcinogen: ETHYLNITROSOUREA, 759-73-9, Dose [Inhibitor]: 0, 1800 PPM IN DRINKING WATER BEGINNING AT 5 WK OF AGE AND CONTINUING TO 51 WK OF AGE (STUDY DURATION: 52 WK), Route [Inhibitor]: ORAL, Species: MOUSE, Strain/Sex: CD-1/FEMALE, Target Tissue: Type of Lesion: LUNG: CARCINOMA, Dose [Carcinogen]: 5 MG/KG ONCE AT 15 D OF AGE","1/36 (3%), 2/38 (5%), -67%, not calculated"
same,"tumour outcome (control, treated, inhibition, significance)","Carcinogen: ETHYLNITROSOUREA, 759-73-9, Dose [Inhibitor]: 0, 1800 PPM IN DRINKING WATER BEGINNING AT 5 WK OF AGE AND CONTINUING TO 51 WK OF AGE (STUDY DURATION: 52 WK), Route [Inhibitor]: ORAL, Species: MOUSE, Strain/Sex: CD-1/FEMALE, Target Tissue: Type of Lesion: LUNG: CARCINOMA, Dose [Carcinogen]: 20 MG/KG ONCE AT 15 D OF AGE","2/39 (5%), 5/45 (11%), -120%, not calculated"
same,"tumour outcome (control, treated, inhibition, significance)","Carcinogen: ETHYLNITROSOUREA, 759-73-9, Dose [Inhibitor]: 0, 1800 PPM IN DRINKING WATER BEGINNING AT 5 WK OF AGE AND CONTINUING TO 51 WK OF AGE (STUDY DURATION: 52 WK), Route [Inhibitor]: ORAL, Species: MOUSE, Strain/Sex: CD-1/MALE, Target Tissue: Type of Lesion: LIVER: ADENOMA, Dose [Carcinogen]: 5 MG/KG ONCE AT 15 D OF AGE","8/39 (21%), 1/25 (4%), 81%, p<0.05"
same,"tumour outcome (control, treated, inhibition, significance)","Carcinogen: ETHYLNITROSOUREA, 759-73-9, Dose [Inhibitor]: 0, 1800 PPM IN DRINKING WATER BEGINNING AT 5 WK OF AGE AND CONTINUING TO 51 WK OF AGE (STUDY DURATION: 52 WK), Route [Inhibitor]: ORAL, Species: MOUSE, Strain/Sex: CD-1/MALE, Target Tissue: Type of Lesion: LIVER: ADENOMA, Dose [Carcinogen]: 20 MG/KG ONCE AT 15 D OF AGE","22/30 (73%), 12/29 (41%), 44%, p<0.05"
same,"tumour outcome (control, treated, inhibition, significance)","Carcinogen: ETHYLNITROSOUREA, 759-73-9, Dose [Inhibitor]: 0, 1800 PPM IN DRINKING WATER BEGINNING AT 5 WK OF AGE AND CONTINUING TO 51 WK OF AGE (STUDY DURATION: 52 WK), Route [Inhibitor]: ORAL, Species: MOUSE, Strain/Sex: CD-1/MALE, Target Tissue: Type of Lesion: LIVER: CARCINOMA, Dose [Carcinogen]: 5 MG/KG ONCE AT 15 D OF AGE","2/39 (5%), 0/25 (0%), 100%, not calculated"
same,"tumour outcome (control, treated, inhibition, significance)","Carcinogen: ETHYLNITROSOUREA, 759-73-9, Dose [Inhibitor]: 0, 1800 PPM IN DRINKING WATER BEGINNING AT 5 WK OF AGE AND CONTINUING TO 51 WK OF AGE (STUDY DURATION: 52 WK), Route [Inhibitor]: ORAL, Species: MOUSE, Strain/Sex: CD-1/MALE, Target Tissue: Type of Lesion: LIVER: CARCINOMA, Dose [Carcinogen]: 20 MG/KG ONCE AT 15 D OF AGE","10/30 (33%), 5/29 (17%), 48%, p<0.1"
same,"tumour outcome (control, treated, inhibition, significance)","Carcinogen: ETHYLNITROSOUREA, 759-73-9, Dose [Inhibitor]: 0, 1800 PPM IN DRINKING WATER BEGINNING AT 5 WK OF AGE AND CONTINUING TO 51 WK OF AGE (STUDY DURATION: 52 WK), Route [Inhibitor]: ORAL, Species: MOUSE, Strain/Sex: CD-1/MALE, Target Tissue: Type of Lesion: LUNG: ADENOMA, Dose [Carcinogen]: 5 MG/KG ONCE AT 15 D OF AGE","11/39 (29%), 10/25 (40%), -38%, not calculated"
same,"tumour outcome (control, treated, inhibition, significance)","Carcinogen: ETHYLNITROSOUREA, 759-73-9, Dose [Inhibitor]: 0, 1800 PPM IN DRINKING WATER BEGINNING AT 5 WK OF AGE AND CONTINUING TO 51 WK OF AGE (STUDY DURATION: 52 WK), Route [Inhibitor]: ORAL, Species: MOUSE, Strain/Sex: CD-1/MALE, Target Tissue: Type of Lesion: LUNG: ADENOMA, Dose [Carcinogen]: 20 MG/KG ONCE AT 15 D OF AGE","15/30 (50%), 12/29 (41%), 18%, not calculated"
same,"tumour outcome (control, treated, inhibition, significance)","Carcinogen: ETHYLNITROSOUREA, 759-73-9, Dose [Inhibitor]: 0, 1800 PPM IN DRINKING WATER BEGINNING AT 5 WK OF AGE AND CONTINUING TO 51 WK OF AGE (STUDY DURATION: 52 WK), Route [Inhibitor]: ORAL, Species: MOUSE, Strain/Sex: CD-1/MALE, Target Tissue: Type of Lesion: LUNG: CARCINOMA, Dose [Carcinogen]: 5 MG/KG ONCE AT 15 D OF AGE","1/39 (3%), 1/25 (4%), -33%, not calculated"
same,"tumour outcome (control, treated, inhibition, significance)","Carcinogen: ETHYLNITROSOUREA, 759-73-9, Dose [Inhibitor]: 0, 1800 PPM IN DRINKING WATER BEGINNING AT 5 WK OF AGE AND CONTINUING TO 51 WK OF AGE (STUDY DURATION: 52 WK), Route [Inhibitor]: ORAL, Species: MOUSE, Strain/Sex: CD-1/MALE, Target Tissue: Type of Lesion: LUNG: CARCINOMA, Dose [Carcinogen]: 20 MG/KG ONCE AT 15 D OF AGE","2/30 (7%), 4/29 (14%), -100%, not calculated"
O=[N+]([O-])[O-].O=[N+]([O-])[O-].O=[N+]([O-])[O-].[Bi+3],"tumour outcome (control, treated, inhibition, significance)","Carcinogen: CISPLATIN, 15663-27-1, Dose [Inhibitor]: 0, 50 UMOL/KG/D 3 D/WK FOR 8 WK ADMINISTERED 24 HR PRIOR TO EACH CARCINOGEN DOSE (STUDY DURATION: 24 WK), Route [Inhibitor]: SUBCUTANEOUS, Species: MOUSE, Strain/Sex: STRAIN-A/FEMALE, Target Tissue: Type of Lesion: LUNG: TUMOR, Dose [Carcinogen]: 2 UMOL/KG/D 3 D/WK FOR 8 WK","100%, 54%, 46%, p<0.01"
same,"tumour outcome (control, treated, inhibition, significance)","Carcinogen: MELPHALAN, 148-82-3, Dose [Inhibitor]: 0, 50 UMOL/KG/D 3 D/WK FOR 8 WK ADMINISTERED 24 HR PRIOR TO EACH CARCINOGEN DOSE (STUDY DURATION: 24 WK), Route [Inhibitor]: SUBCUTANEOUS, Species: MOUSE, Strain/Sex: STRAIN-A/FEMALE, Target Tissue: Type of Lesion: LUNG: TUMOR, Dose [Carcinogen]: 4 UMOL/KG/D 3 D/WK FOR 8 WK","100%, 100%, 0%, not significant"
